pIC50: −log10 of the molar value.
Assays:
Test in all cases: Cell viability, CellTiterGlo, 72 hours
Type in all cases: cell-based
A2058 = conditions: Homo sapiens, A2058 cells, Skin
Experimental: (§1) In addition to the colorectal cells, 120 cancer cell lines treated with various concentrations of lomitapide were assayed for viability. To analyze cell viability, the cells were incubated with lomitapide at 37° C. for 72 hours in a 5% or 10% CO2 atmosphere and then equilibrated at room temperature for 1 hour, followed by addition of CellTiterGlo reagent (Promega). One hour later, luminescence was measured to calculate cell viability (%). The 120 cell lines were purchased from ATCC (American Type Culture Collection, Virginia, USA).

A375 = conditions: Homo sapiens, A-375, A375 cells, Skin
Experimental: as §1

COR-L279 = conditions: Homo sapiens, COR-L279 cells, Lung
Experimental: as §1

Colo 205 = conditions: Homo sapiens, Colo 205 cells, Colon
Experimental: as §1

DLD-1 = conditions: Homo sapiens, DLD-1 cells, Colon
Experimental: as §1

DV90 = conditions: Homo sapiens, DV-90, DV90 cells, Lung
Experimental: as §1

H460 = conditions: Homo sapiens, NCI-H460, H460 cells, Lung
Experimental: as §1

HT-1080 = conditions: Homo sapiens, HT-1080 cells, Fibrosarcoma
Experimental: as §1

Hs 746T = conditions: Homo sapiens, Hs746T, Hs 746T cells, Stomach
Experimental: as §1

JVM-3 = conditions: Homo sapiens, JVM-3 cells, Blood
Experimental: as §1

KG-1 = conditions: Homo sapiens, KG-1 cells, Blood
Experimental: as §1

LOU-NH91 = LOU-NH91 cells, Lung
Experimental: as §1

M07e = conditions: M-07e, M07e cells, Blood
Experimental: as §1

MCF-7 = conditions: Homo sapiens, MCF7, MCF-7 cells, Breast
Experimental: as §1

MDA MB 231 = conditions: Homo sapiens, MDA MB 231 cells, Breast
Experimental: as §1

MDA MB 435 = conditions: Homo sapiens, MDA MB 435 cells, Skin
Experimental: as §1

MKN-1 = conditions: Homo sapiens, MKN-1 cells, Stomach
Experimental: as §1

MV4-11 = conditions: Homo sapiens, MV4-11 cells, Blood
Experimental: as §1

NCI-H1048 = conditions: Homo sapiens, NCI-H1048 cells, Lung
Experimental: as §1

NCI-H1563 = conditions: Homo sapiens, NCI-H1563 cells, Lung
Experimental: as §1

NCI-H1703 = conditions: Homo sapiens, NCI-H1703 cells, Lung
Experimental: as §1

NCI-H1838 = conditions: Homo sapiens, NCI-H1838 cells, Lung
Experimental: as §1

NCI-H2286 = conditions: Homo sapiens, NCI-H2286 cells, Lung
Experimental: as §1

NCI-H82 = conditions: Homo sapiens, NCI-H82 cells, Lung
Experimental: as §1

NCI-H838 = conditions: Homo sapiens, NCI-H838 cells, Lung
Experimental: as §1

OV56 = OV56 cells, Ovary
Experimental: as §1

P31/FUJ = conditions: Homo sapiens, P31/FUJ cells, Blood
Experimental: as §1

PC3 = conditions: Homo sapiens, PC-3, PC3 cells, Prostate
Experimental: as §1

RPMI 8226 = conditions: Homo sapiens, RPMI 8226 cells, Blood
Experimental: as §1

SK-ES-1 = conditions: Homo sapiens, SK-ES1, SK-ES-1 cells, Bone
Experimental: as §1

SK-LU-1 = conditions: Homo sapiens, SK-LU-1 cells, Lung
Experimental: as §1

SK-N-FI = conditions: Homo sapiens, SK-N-FI cells, Brain
Experimental: as §1

SK-N-MC = conditions: Homo sapiens, SK-N-MC cells, Brain
Experimental: as §1

SK-OV3 = conditions: Homo sapiens, SK-OV-3, SK-OV3 cells, Ovary
Experimental: as §1

SW480 = conditions: Homo sapiens, SW480 cells, Colon
Experimental: as §1

T98G = conditions: Homo sapiens, T98G cells, Brain
Experimental: as §1

U251MG = conditions: Homo sapiens, U-251, U251MG cells, Brain
Experimental: as §1

U2OS = conditions: Homo sapiens, U2OS cells, Bone
Experimental: as §1

U87MG = conditions: Homo sapiens, U-87 MG, U87MG cells, Brain
Experimental: as §1

Work on `O=C(NC1CCN(CCCCC2(C(=O)NCC(F)(F)F)c3ccccc3-c3ccccc32)CC1)c1ccccc1-c1ccc(C(F)(F)F)cc1` [lomitapide, N-(2,2,2-trifluoroethyl)-9-[4-[4-[[[4′-(trifluoromethyl)[1,1′-biphenyl]2-yl]carbonyl]amino]-1-piperidinyl]butyl]-9H-fluoren-9-carboxamide] yielded a pIC50 (A2058) of 5.85, a pIC50 (A375) of 5.74 and a pIC50 (COR-L279) of 5.57. For the same compound, the pIC50 (Colo 205) was 5.47, the pIC50 (DLD-1) was 5.35 and the pIC50 (DV90) was 5.28. It also gave a pIC50 (H460) of 5.42, a pIC50 (HT-1080) of 5.41 and a pIC50 (Hs 746T) of 5.60. For the same compound, the pIC50 (JVM-3) was 5.40, the pIC50 (KG-1) was 5.24 and the pIC50 (LOU-NH91) was 5.24. It also gave a pIC50 (M07e) of 5.38, a pIC50 (MCF-7) of 5.55 and a pIC50 (MDA MB 231) of 5.49. The pIC50 (MDA MB 435) was 5.52, the pIC50 (MKN-1) was 5.43 and the pIC50 (MV4-11) was 5.21. For the same compound, the pIC50 (NCI-H1048) was 5.26, the pIC50 (NCI-H1563) was 5.28 and the pIC50 (NCI-H1703) was 5.24. For the same compound, the pIC50 (NCI-H1838) was 5.40, the pIC50 (NCI-H2286) was 5.47 and the pIC50 (NCI-H82) was 5.49. For the same compound, the pIC50 (NCI-H838) was 5.42, the pIC50 (OV56) was 5.32 and the pIC50 (P31/FUJ) was 5.51. The pIC50 (PC3) was 5.37, the pIC50 (RPMI 8226) was 5.68 and the pIC50 (SK-ES-1) was 5.46. The pIC50 (SK-LU-1) was 5.34, the pIC50 (SK-N-FI) was 5.47 and the pIC50 (SK-N-MC) was 5.62. For the same compound, the pIC50 (SK-OV3) was 5.48, the pIC50 (SW480) was 5.60 and the pIC50 (T98G) was 5.42. For the same compound, the pIC50 (U251MG) was 5.27, the pIC50 (U2OS) was 5.55 and the pIC50 (U87MG) was 5.51.

Source: US12582638B2, “Pharmaceutical composition for treating cancer, containing mTOR-signaling inhibitor as active ingredient” (KOREA ADVANCED INSTITUTE OF SCIENCE AND TECHNOLOGY, priority 2020, dated 2026)
